Laboratory results: BigSolDB 2.1

CC(=O)C1C(=O)C=C(C)OC1=O (centres undefined)
Details | solubility (mole fraction)
in 2-butanone, 288.35 K | 0.0125
in 2-butanone, 292.15 K | 0.0153
in 2-butanone, 296.45 K | 0.0165
in 2-butanone, 300.35 K | 0.0196
in 2-butanone, 304.05 K | 0.0227
in 2-butanone, 308.05 K | 0.0285
in 2-butanone, 312.15 K | 0.0315
in 2-butanone, 315.75 K | 0.037
in DMAc, 288.35 K | 0.0941
in DMAc, 292.15 K | 0.111
in DMAc, 296.45 K | 0.12
in DMAc, 300.45 K | 0.135
in DMAc, 304.45 K | 0.15
in DMAc, 308.25 K | 0.168
in DMAc, 312.15 K | 0.19
in DMAc, 316.35 K | 0.205
in DMF, 288.5 K | 0.0744
in DMF, 292.45 K | 0.0857
in DMF, 296.35 K | 0.093
in DMF, 299.95 K | 0.105
in DMF, 304.45 K | 0.123
in DMF, 307.85 K | 0.139
in DMF, 312.35 K | 0.162
in DMF, 315.85 K | 0.181
in DMSO, 288.15 K | 0.0267
in DMSO, 292.15 K | 0.0314
in DMSO, 296.15 K | 0.0383
in DMSO, 300.15 K | 0.0462
in DMSO, 304.15 K | 0.0544
in DMSO, 308.15 K | 0.0599
in DMSO, 312.15 K | 0.0738
in DMSO, 316.15 K | 0.0874
in acetone, 288.15 K | 0.0477
in acetone, 291.85 K | 0.0547
in acetone, 296.15 K | 0.0587
in acetone, 300.25 K | 0.0695
in acetone, 304.15 K | 0.0812
in acetone, 308.15 K | 0.0964
in acetone, 312.05 K | 0.111
in acetone, 316.25 K | 0.13
in acetonitrile, 288.35 K | 0.039
in acetonitrile, 292.35 K | 0.0489
in acetonitrile, 296.25 K | 0.0557
in acetonitrile, 300.35 K | 0.0634
in acetonitrile, 304.05 K | 0.0733
in acetonitrile, 308.15 K | 0.0887
in acetonitrile, 312.65 K | 0.107
in acetonitrile, 316.25 K | 0.123
in ethanol, 288.25 K | 0.00512
in ethanol, 291.95 K | 0.00652
in ethanol, 296.25 K | 0.00812
in ethanol, 300.35 K | 0.00941
in ethanol, 303.65 K | 0.0109
in ethanol, 308.55 K | 0.0135
in ethanol, 312.65 K | 0.0176
in ethanol, 316.15 K | 0.0217
in ethyl acetate, 288.45 K | 0.0499
in ethyl acetate, 292.45 K | 0.0571
in ethyl acetate, 295.95 K | 0.0646
in ethyl acetate, 300.25 K | 0.0714
in ethyl acetate, 304.05 K | 0.081
in ethyl acetate, 307.95 K | 0.0938
in ethyl acetate, 312.25 K | 0.109
in ethyl acetate, 316.35 K | 0.128
in ethyl formate, 288.05 K | 0.0536
in ethyl formate, 291.95 K | 0.061
in ethyl formate, 296.15 K | 0.067
in ethyl formate, 300.05 K | 0.0765
in ethyl formate, 304.15 K | 0.0894
in ethyl formate, 308.45 K | 0.104
in ethyl formate, 312.45 K | 0.119
in ethyl formate, 315.85 K | 0.135
in isopropanol, 288.05 K | 0.00448
in isopropanol, 292.35 K | 0.0056
in isopropanol, 296.55 K | 0.00709
in isopropanol, 300.15 K | 0.00876
in isopropanol, 304.65 K | 0.0105
in isopropanol, 308.15 K | 0.0127
in isopropanol, 312.35 K | 0.0168
in isopropanol, 315.65 K | 0.0202
in methanol, 288.05 K | 0.00588
in methanol, 292.35 K | 0.00716
in methanol, 296.05 K | 0.00781
in methanol, 300.15 K | 0.0104
in methanol, 303.95 K | 0.0113
in methanol, 308.55 K | 0.0149
in methanol, 312.15 K | 0.0174
in methanol, 316.05 K | 0.022
in n-pentanol, 287.75 K | 0.00604
in n-pentanol, 291.95 K | 0.00758
in n-pentanol, 296.25 K | 0.00959
in n-pentanol, 300.35 K | 0.0117
in n-pentanol, 304.15 K | 0.0148
in n-pentanol, 308.35 K | 0.0189
in n-pentanol, 312.15 K | 0.0233
in n-pentanol, 315.95 K | 0.0284
in n-propanol, 287.95 K | 0.00523
in n-propanol, 292.65 K | 0.00657
in n-propanol, 296.35 K | 0.00836
in n-propanol, 300.55 K | 0.00974
in n-propanol, 304.35 K | 0.0118
in n-propanol, 308.15 K | 0.0143
in n-propanol, 312.65 K | 0.0187
in n-propanol, 316.35 K | 0.0224
